This is an account of results in patent US9102637B2, “Bicyclic thiazole compounds” (CARNA BIOSCIENCES INC., priority 2013, dated 2015).

For experiment [1], the system named is human colon cancer cell line HCT-116. Nature of the experiment: In vitro cell proliferation assay. The class given is cell-based. Particulars: HCT-116 cell number, 72 hours of treatment. As for the experimental part:
In Vitro Cell Proliferation Assay
The human colon cancer cell line HCT-116 was seeded at 600 cells/well in 96 well-plate (ThermoFisher) using RPMI medium containing 2 mM L-glutamine (Invitrogen) supplemented with 10% FCS (Invitrogen) and 1% penicillin/streptomycin (Sigma) and maintained at 37° C., 5% CO2 and 100% humidity. The following day, old medium was withdrawn and the fresh medium was added. Initial numbers of cells were counted before adding compounds. Then cells were treated in duplicates with compounds (a half-logarithmic serial dilution from 10 μM). Eight untreated control wells were incubated in each plate. After 72 hours of treatment, cells were fixed with 2% paraformaldehyde, and the nucleus were stained with Hoechst 33258 (Invitrogen). The numbers of cells were counted with ArrayScan™ VTI (ThermoFisher Scientific).

Experiment [2] deals with human TNIK (N-terminal segment, TNIK_N, residues 1-314) (Homo sapiens (Human), UniProt Q9UKE5). Description: TNIK kinase assay (mobility shift). Particulars: TNIK_N kinase activity, 25 μM ATP, 1 h at room temperature. The class given is biochemical. The essentials:
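GST-tagged human TNIK residues 1-314 (Sf21 baculovirus) at 0.08 ng/μl phosphorylated 1 μM FITC-peptide with 25 μM ATP. Buffer: 20 mM Hepes pH 7.5, 5 mM MgCl2, 2 mM DTT, 1% DMSO; 1 h at room temperature, stopped with EDTA. Mobility-shift detection; activity = P/(P+S).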

Chain of human TNIK (N-terminal segment, TNIK_N, residues 1-314) (Q9UKE5 1-314): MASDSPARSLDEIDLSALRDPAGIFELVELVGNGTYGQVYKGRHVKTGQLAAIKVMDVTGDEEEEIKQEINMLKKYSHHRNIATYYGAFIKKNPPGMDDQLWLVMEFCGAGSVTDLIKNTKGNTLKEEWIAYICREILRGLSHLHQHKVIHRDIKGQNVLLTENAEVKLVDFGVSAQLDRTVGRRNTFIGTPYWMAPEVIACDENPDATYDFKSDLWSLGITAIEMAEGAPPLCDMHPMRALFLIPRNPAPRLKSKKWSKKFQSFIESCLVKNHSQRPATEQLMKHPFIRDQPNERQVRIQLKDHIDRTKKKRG

A word on the IC50: it is the concentration at which inhibition is half-maximal. In experiment [1], `NC(=O)c1nc(Nc2ccc3ccccc3c2)sc1NC(=O)c1ccc(N2CCOCC2)cc1` [Example 15, 5-(4-morpholinobenzamido)-2-(naphthalen-2-yl-amino)thiazole-4-carboxamide] showed an IC50 below 100 nM.
`CN1CCN(c2ccc(C(=O)Nc3sc(Nc4ccc5ccccc5c4)nc3C(N)=O)cc2)CC1` [Example 12, 5-[4-(4-methylpiperazin-1-yl)benzamido]-2-(naphthalen-2-ylamino)thiazole-4-carboxamide]: the IC50 in experiment [2] was 10.2 nM; in experiment [1] it was 100 to 1000 nM.
Taken in the same sequence, the figures for `CN1CCN(c2ccc(C(=O)Nc3sc(Nc4cccc5cccnc45)nc3C(N)=O)cc2)CC1` [Example 27, 5-[4-(4-methylpiperazin-1-yl)benzamido]-2-(quinolin-8-ylamino)thiazole-4-carboxamide] were 19.1 nM and 1000 to 10000 nM.
As to `CN1CCN(Cc2cc(C(=O)Nc3sc(Nc4ccc5ccccc5c4)nc3C(N)=O)cs2)CC1` [Example 60, 5-{5-[(4-methylpiperazin-1-yl)methyl]thiophene-3-carboxamido}-2-(naphthalen-2-ylamino) thiazole-4-carboxamide], the IC50 in experiment [1] was below 100 nM.
Same read-out and setting: under `CN(C)Cc1ccc(C(=O)Nc2sc(Nc3ccc4ccccc4c3)nc2C(N)=O)cc1` [Example 20, 5-{4-[(dimethylamino)methyl]benzamido}-2-(naphthalen-2-ylamino)thiazole-4-carboxamide] stands below 100 nM.
Turning to `CN(C)CCNc1ccc(C(=O)Nc2sc(Nc3ccc4ccccc4c3)nc2C(N)=O)cc1` [Example 11, 5-{4-[2-(dimethylamino)ethylamino]benzamido}-2-(naphthalen-2-ylamino)thiazole-4-carboxamide], the IC50 is 8.6 nM in experiment [2] and below 100 nM in experiment [1].
`Cc1ccc(C(=O)Nc2sc(Nc3ccc4ccccc4c3)nc2C(N)=O)s1` [Example 34, 5-(5-methylthiophene-2-carboxamido)-2-(naph-thalen-2-ylamino)thiazole-4-carboxamide]: in experiment [1], the IC50 was below 100 nM.
Consider `NC(=O)c1nc(Nc2ccc3ccccc3c2)sc1NC(=O)c1ccc(NCCO)cc1` [Example 10, 5-[4-(2-hydroxyethylamino)benzamido]-2-(naphthalen-2-ylamino)thiazole-4-carboxamide], for which the IC50 in experiment [2] is 10.6 nM; in experiment [1], below 100 nM.
In the same order, the values of `NCc1ccc(C(=O)Nc2sc(Nc3ccc4ccccc4c3)nc2C(N)=O)cc1` [Example 23, 5-(4-aminomethylbenzamido)-2-(naphthalen-2-yl-amino)thiazole-4-carboxamide] are 5.3 nM and 100 to 1000 nM.
In the same order, the values of `NC(=O)c1nc(Nc2ccc3ccccc3c2)sc1NC(=O)c1ccc(Cn2ccnc2)cc1` [Example 208, 5-{4-[(1H-imidazol-1-yl)methyl]benzamido}-2-(naphthalen-2-ylamino)thiazole-4-carboxamide] are 3 nM and below 100 nM.
Turning to `NC(=O)c1nc(Nc2ccc3ccccc3c2)sc1NC(=O)c1ccc(N)cc1` [Example 16, 5-(4-aminobenzamido)-2-(naphthalen-2-ylamino) thiazole-4-carboxamide], the IC50 was 20.3 nM in experiment [2] and below 100 nM in experiment [1].
Take `NC(=O)c1nc(Nc2ccc3ccccc3c2)sc1NC(=O)c1ccc(NCCOCCO)cc1` [Example 78, 5-(4-{[2-(2-hydroxyethoxy)ethyl]amino}benz-amido)-2-(naphthalen-2-ylamino)thiazole-4-carbox-amide]: the IC50 in experiment [1] was below 100 nM.
Same read-out and setting: next, `CN1CCN(CCCCCC(=O)Nc2sc(Nc3ccc4ccccc4c3)nc2C(N)=O)CC1` [Example 91, 5-[6-(4-methylpiperazin-1-yl)hexanamido]-2-(naphthalen-2-ylamino)thiazole-4-carboxamide]: 100 to 1000 nM; `COc1ccc2cc(Nc3nc(C(N)=O)c(NC(=O)c4ccsc4)s3)ccc2c1` [Example 73, 2-[(6-methoxynaphthalen-2-yl)amino]-5-(thio-phene-3-carboxamido)thiazole-4-carboxamide]: 1000 to 10000 nM; `NC(=O)c1nc(Nc2ccnc3ccccc23)sc1NC(=O)c1csc(CN2CCOCC2)c1` [Example 67]: 1000 to 10000 nM.
For `NC(=O)c1nc(Nc2ccc3ccccc3c2)sc1NC(=O)c1ccc(NC(=O)CO)cc1` [Example 21, 5-[4-(2-hydroxyacetamido)benzamido]-2-(naphthalen-2-ylamino)thiazole-4-carboxamide], the IC50 in experiment [1] was below 100 nM.
In experiment [1], `NC(=O)c1nc(Nc2cccc3ncccc23)sc1NC(=O)c1csc(CN2CCOCC2)c1` [Example 49, 5-[5-(morpholinomethyl)thiophene-3-carbox-amido]-2-(quinolin-5-ylamino)thiazole-4-carboxamide] yielded an IC50 of 1000 to 10000 nM.
As for `NC(=O)c1nc(Nc2ccc3ccccc3c2)sc1NC(=O)c1ccc(CN2C(=O)CSC2=O)cc1` [Example 252, 5-{4-[(2,4-dioxothiazolidin-3-yl)methyl]benzamido}-2-(naphthalen-2-ylamino)thiazole-4-carbox-amide], in experiment [2], the concentration for half-maximal inhibition (IC50) was 15.9 nM.
Regarding `NC(=O)c1nc(Nc2ccc3ccccc3c2)sc1NC(=O)c1ccc(Cc2nn[nH]n2)cc1` [Example 231, 5-{4-[(2H-tetrazol-5-yl)methyl]benzamido}-2-(naphthalen-2-ylamino)thiazole-4-carboxamide], in experiment [2], the IC50 was 2.9 nM.
Regarding `NC(=O)c1nc(Nc2ccc3ccccc3c2)sc1NC(=O)c1ccc(CN2CCNCC2)cc1` [Example 19, 2-(naphthalen-2-ylamino)-5-[4-(piperazin-1-ylmethyl)benzamido]thiazole-4-carboxamide], in experiment [1], the IC50 is 100 to 1000 nM.
For `Cc1nnnn1Cc1ccc(C(=O)Nc2sc(Nc3ccc4ccccc4c3)nc2C(N)=O)cc1` [Example 244, 5-{4-[(5-methyl-1H-tetrazol-1-yl)methyl]benz-amido}-2-(naphthalen-2-ylamino)thiazole-4-carbox-amide], the IC50 in experiment [2] was 7.1 nM.
Still for that read-out and setting: under `NC(=O)c1nc(Nc2ccc3ccccc3c2)sc1NC(=O)c1ccc(Cn2cc(CO)nn2)cc1` [Example 260, 5-{4-[(4-(hydroxymethyl)-1H-1,2,3-triazol-1-yl)methyl]benzamido}-2-(naphthalen-2-ylamino) thiazole-4-carboxamide] stands 5.3 nM; under `NC(=O)c1nc(Nc2ccc3ccccc3c2)sc1NC(=O)CCCCCN1CCOCC1` [Example 92, 5-(6-morpholinohexanamido)-2-(naphthalen-2-ylamino)thiazole-4-carboxamide], 20.2 nM.
`NC(=O)c1nc(Nc2ccc3ccccc3c2)sc1NC(=O)c1ccc(F)cc1` [Example 8, 5-(4-fluorobenzamido)-2-(naphthalen-2-ylamino) thiazole-4-carboxamide] registered an IC50 in experiment [1] of 100 to 1000 nM.
On to `Cc1ccc(C(=O)Nc2sc(Nc3ccc4ccccc4c3)nc2C(N)=O)cc1N` [Example 9, 5-(3-amino-4-methylbenzamido)-2-(naphthalen-2-ylamino)thiazole-4-carboxamide], for which the IC50 in experiment [2] was 27.2 nM.
Same read-out and setting: next, `NCCNc1ccc(C(=O)Nc2sc(Nc3ccc4ccccc4c3)nc2C(N)=O)cc1` [Example 188, 5-{4-[(2-aminoethyl)amino]benzamido}-2-(naph-thalen-2-ylamino)thiazole-4-carboxamide]: 8.4 nM; `NC(=O)c1nc(Nc2ccc3ccccc3c2)sc1NC(=O)c1ccc(Cn2cccn2)cc1` [Example 232, 5-{4-[(1H-pyrazol-1-yl)methyl]benzamido}-2-(naphthalen-2-ylamino)thiazole-4-carboxamide]: 10.3 nM.
Still for that read-out and setting: under `NC(=O)c1nc(Nc2ccc3ccc(F)cc3c2)sc1NC(=O)CCCCCN1CCOCC1` [Example 130, 2-[(7-fluoronaphthalen-2-yl)amino]-5-(6-morpho-linohexanamido)thiazole-4-carboxamide] stands 19.5 nM; under `NC(=O)c1nc(Nc2ccc3ccccc3c2)sc1NC(=O)c1ccc(CN2CC(O)C2)cc1` [Example 201, 5-{4-[(3-hydroxyazetidin-1-yl)methyl]benzamido}-2-(naphthalen-2-ylamino)thiazole-4-carbox-amide], 5.6 nM; under `NC(=O)c1nc(Nc2ccc3ccccc3c2)sc1NC(=O)c1ccc(Cn2cnc([N+](=O)[O-])c2)cc1` [Example 239, 2-(naphthalen-2-ylamino)-5-{4-[(4-nitro-1H-imidazol-1-yl)methyl]benzamido}thiazole-4-carbox-amide], 5.9 nM.
Same read-out and setting: next, `NC(=O)c1nc(Nc2ccc3ccc(F)cc3c2)sc1NC(=O)c1ccsc1` [Example 80, 2-[(7-fluoronaphthalen-2-yl)amino]-5-(thiophene-3-carboxamido)thiazole-4-carboxamide]: 16.9 nM; `CN1CCCN(Cc2ccc(C(=O)Nc3sc(Nc4ccc5ccccc5c4)nc3C(N)=O)cc2)CC1` [Example 190, 5-{4-[(4-methyl-1,4-diazepan-1-yl)methyl]benz-amido}-2-(naphthalen-2-ylamino)thiazole-4-carbox-amide]: 3.2 nM; `NC(=O)c1nc(Nc2ccc3ccccc3c2)sc1NC(=O)c1ccc(N2CCN(CCO)CC2)cc1` [Example 187, 5-{4-[4-(2-hydroxyethyl)piperazin-1-yl]benzamido}-2-(naphthalen-2-ylamino)thiazole-4-carbox-amide]: 7.2 nM.
